Holding throughout (format): cell-based
The subject of assay [1] is A. baumannii strain TP3. The assay is described as follows: Checkerboard assay, phage cocktail and minocycline. The conditions noted are these: Acinetobacter baumannii, TP3, read-out: Minimal Inhibition Concentration (MIC).
For assay [2], the system named is A. baumannii strain TP3. The assay can be described thus: Minocycline ETEST. Conditions: Acinetobacter baumannii, TP3, read-out: IC50 of A. baumannii strain TP3 to minocycline by ETEST. The method, then: For example, this assay was performed in order to better understand the interaction between the phage cocktail and minocycline administered in combination to the patient discussed in Example 5. Specifically, each well of a 96 well plate contained tryptic soy media with 1% tetrazolium dye (v/v) for bacterial growth media. […] The wells with antibiotics were then serially diluted 1:1 from row A down to row F. Phage were then added to each well starting at 10^7 pfu per well in column 1 and then serially diluted 1:10 across from column 1 to 6. All wells were then inoculated with approximately 10^4 cfu of bacteria per well. This design allows for antibiotic dilutions going down the columns and dilutions of phage going across the rows. Columns 7 and 8 represent antibiotic control wells and rows G and H represent phage control wells. However, wells G7, G8, H7, and H8 represent bacteria only control wells. […] The IC50 of A. baumannii strain TP3 to minocycline by ETEST (bioMerieux USA, Durham, NC) was 4 μg/mL.

The subject of the next assay is A. baumannii isolate. The assay can be described thus: Minocycline susceptibility of patient's isolate. The conditions noted are these: day 115, previously obtained isolate.
For assay [3], the system named is meropenem^R K. pneumoniae 4640. The assay is described as follows: Phage efficacy assay with meropenem and phage. The conditions noted are these: alone; meropenem 4 μg/ml; phage MOI 100; 48 hours at 37° C. The method, then:
The assay is based on the interaction between lytic phage and bacteria in a liquid environment. In this liquid assay system, tetrazolium dye is added with media. During active growth of bacteria, cellular respiration reduces the tetrazolium dye and produces a color change that is captured by a camera. In this system as many as 400 phage efficacy assays in the presence of a targeted bacterium can be performed simultaneously but separately, thus allowing monitoring of the kinetics of bacterial growth and the development of resistance over the course of the experiment. The interpretation of such phage-bacterial interaction data in liquid environment permits the selection of phages that are highly virulent against the given bacteria, evidenced by a hold-time of at least 4 hours. Further selection of these phages for cocktail preparation is evaluated using the same liquid assay in the presence of various mixtures of these virulent phages.
Using the phage efficacy assay described in Example 1, 10^4 cfu of meropenem^R K. pneumoniae was grown at 37° C. for 48 hours in the following conditions: (a) alone; (b) meropenem or phage (MOI 100); and (c) meropenem and varying MOIs of phage (MOI 0.01-100). The concentration of meropenem used for the indicated cultures was 4 μg/ml. […] The readout of this assay is bacterial growth hold-time.

In assay [4] the test system is vancomycin-resistant E. faecalis (VRE). The assay is described as follows: microbe, parasite or virus in culture.
Procedure: A culture of VRE was first grown in tryptic soy broth (Remel Cat #R455054) to an Optical Density (OD) of 0.5 at 600 nm. Tryptic soy with tetrazolium dye D (BioLog Cat #74224) was added to a 1% v/v ratio and then sterilized through a 0.22 μm filtration unit (Millipore Cat #SCGP00525). VRE stock phage was serially diluted in tryptic soy broth with dye in separate Eppendorf tubes to a final concentration of 10^7 pfu/ml. Vancomycin (Sigma, Cat #SBR00001-10 ml) was diluted separately in tryptic soy broth with tetrazolium dye to a concentration equal to 4 times the Minimal Inhibition Concentration (MIC) for the bacteria being used.
Briefly, microtiter plates for the phage-antibiotics synergy assay were prepared as follows. Tryptic soy broth with dye was added to the plate first. Next 50 μl of tryptic soy with tetrazolium dye was added to each well. […] The wells with Vancomycin were serially diluted 1:1 from row A down to row F. Phage were added to each well starting at 10^7 pfu/well in column 1 and then serially diluted 1:10 across from column 1 to 6. Individual phage was added at an MOI of 100. Finally all wells were inoculated with approximately 10^4 cfu of E. faecalis bacteria per well. […] The color change of all plates was recorded every 15 minutes over the course of the 48 hour incubation period.

≈ marks a conversion by molar mass, not a printed value.

Take `CN(C)c1ccc(O)c2c1C[C@H]1C[C@H]3[C@H](N(C)C)C(O)=C(C(N)=O)C(=O)[C@@]3(O)C(O)=C1C2=O` [minocycline]: the MIC in the assay with A. baumannii strain TP3 [1] stood at 32 µg/mL. Further, the IC50 in the assay on A. baumannii strain TP3 [2] turned out to be 4 µg/mL. Also, in the assay with A. baumannii isolate, the “concentration at which isolate found susceptible” value turned out to be 3 µg/mL.

Consider `C[C@@H](O)[C@H]1C(=O)N2C(C(=O)O)=C(S[C@@H]3CN[C@H](C(=O)N(C)C)C3)[C@H](C)[C@H]12` [meropenem], for which the hold-time result in assay [3] was “approximately 6 hours”.

Regarding `CN[C@H](CC(C)C)C(=O)N[C@H]1C(=O)N[C@@H](CC(N)=O)C(=O)N[C@H]2C(=O)N[C@H]3C(=O)N[C@H](C(=O)N[C@H](C(=O)O)c4cc(O)cc(O)c4-c4cc3ccc4O)[C@H](O)c3ccc(c(Cl)c3)Oc3cc2cc(c3O[C@@H]2O[C@H](CO)[C@@H](O)[C@H](O)[C@H]2O[C@H]2C[C@](C)(N)[C@H](O)[C@H](C)O2)Oc2ccc(cc2Cl)[C@H]1O` [Vancomycin], the “delay of bacterial growth” value in assay [4] (10^4 cfu per well, phage MOI of 100, vancomycin 16 μg/ml, 48 hours at 37° C., FIG. 25) is on record as “up to 18 hours”. In addition, the MIC in assay [4] (Enterococcus faecalis, VRE, read-out: minimal inhibitory concentration for E. faecalis) was 16 µg/mL (≈ 11 µM).

Broadly, the IC50 is the concentration that inhibits the measured activity by half.

The values above are taken from patent publication US12448705B2, “Bacteriophage compositions and methods of selection of components against specific bacteria” (priority 2016, dated 2025).
